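Compound exposure: 48 hours, 5 concentrations, 96-well plates. Abbreviation: GI50, concentration required for 50% inhibition of growth.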 Active and inactive are the calls of the source. Rule as the data show it: active = GI50 up to about 1.1 µM and inactive = higher.
How the values were obtained:
Test in all cases: NCI tumour cell line growth inhibition, 48 h
HCC 2998 = tested on: HCC 2998
A549 = tested on: A549
RPMI-8226 = tested on: RPMI-8226
M14 = tested on: M14
UO-31 = tested on: UO-31
SF-268 = tested on: SF-268
RXF 393 = tested on: RXF 393
HCT-116 = tested on: HCT-116
SK-MEL-2 = tested on: SK-MEL-2
HOP-92 = tested on: HOP-92
SN12C = tested on: SN12C
SF-539 = tested on: SF-539
NCI/ADR-RES = tested on: NCI/ADR-RES
CAKI-1 = tested on: CAKI-1
TK-10 = tested on: TK-10
OVCAR-4 = tested on: OVCAR-4
UACC-62 = tested on: UACC-62
CCRF-CEM = tested on: CCRF-CEM
NCI-H460 = tested on: NCI-H460
SNB-19 = tested on: SNB-19
SK-MEL-5 = tested on: SK-MEL-5
NCI-H522 = tested on: NCI-H522
HL-60 = tested on: HL-60
A498 = tested on: A498
HT-29 = tested on: HT-29
MCF7 = tested on: MCF7
SK-MEL-28 = tested on: SK-MEL-28
SF-295 = tested on: SF-295
IGROV-1 = tested on: IGROV-1
OVCAR-3 = tested on: OVCAR-3
SK-OV-3 = tested on: SK-OV-3
OVCAR-8 = tested on: OVCAR-8
Hs-578T = tested on: Hs-578T
MOLT-4 = tested on: MOLT-4
PC-3 = tested on: PC-3
NCI-H23 = tested on: NCI-H23
NCI-H226 = tested on: NCI-H226
OVCAR-5 = tested on: OVCAR-5
SNB-75 = tested on: SNB-75
LOX IMVI = tested on: LOX IMVI
786-0 = tested on: 786-0
U-251 = tested on: U-251
SW-620 = tested on: SW-620
SR = tested on: SR
HCT-15 = tested on: HCT-15
MDA-MB-435 = tested on: MDA-MB-435
HOP-62 = tested on: HOP-62
DU-145 = tested on: DU-145
MDA-N = tested on: MDA-N
K562 = tested on: K562
UACC-257 = tested on: UACC-257
ACHN = tested on: ACHN
KM12 = tested on: KM12
BT-549 = tested on: BT-549
COLO 205 = tested on: COLO 205
Malme-3M = tested on: Malme-3M
T47D = tested on: T47D
EKVX = tested on: EKVX
MDA-MB-231 = tested on: MDA-MB-231

SMILES: COc1cc(C)cc2c1C(=O)C(Br)=CC2=O
- GI50 (HCC 2998): 19.5 µM (inactive)
- GI50 (A549): 21.2 µM (inactive)
- GI50 (RPMI-8226): 3.13 µM (inactive)
- GI50 (M14): 3.3 µM (inactive)
- GI50 (UO-31): 5.38 µM (inactive)
- GI50 (SF-268): 16.4 µM (inactive)
- GI50 (RXF 393): 3.31 µM (inactive)
- GI50 (HCT-116): 6.7 µM (inactive)
- GI50 (SK-MEL-2): 14.4 µM (inactive)
- GI50 (HOP-92): 3.09 µM (inactive)
- GI50 (SN12C): 15.7 µM (inactive)
- GI50 (SF-539): 15.2 µM (inactive)
- GI50 (NCI/ADR-RES): 27.3 µM (inactive)
- GI50 (CAKI-1): 1.63 µM (inactive)
- GI50 (TK-10): 2.49 µM (inactive)
- GI50 (OVCAR-4): 2.75 µM (inactive)
- GI50 (UACC-62): 9.71 µM (inactive)
- GI50 (CCRF-CEM): 0.867 µM (active)
- GI50 (NCI-H460): 19.4 µM (inactive)
- GI50 (SNB-19): 16.3 µM (inactive)
- GI50 (SK-MEL-5): 12.6 µM (inactive)
- GI50 (NCI-H522): 2.03 µM (inactive)
- GI50 (HL-60): 1.53 µM (inactive)
- GI50 (A498): 20.1 µM (inactive)
- GI50 (HT-29): 8.22 µM (inactive)
- GI50 (MCF7): 4.48 µM (inactive)
- GI50 (SK-MEL-28): 17.4 µM (inactive)
- GI50 (SF-295): 16.2 µM (inactive)
- GI50 (IGROV-1): 17.7 µM (inactive)
- GI50 (OVCAR-3): 4.82 µM (inactive)
- GI50 (SK-OV-3): 19.6 µM (inactive)
- GI50 (OVCAR-8): 6.34 µM (inactive)
- GI50 (Hs-578T): 29.4 µM (inactive)
- GI50 (MOLT-4): 2.39 µM (inactive)
- GI50 (PC-3): 17 µM (inactive)
- GI50 (NCI-H23): 15.5 µM (inactive)
- GI50 (NCI-H226): 17.4 µM (inactive)
- GI50 (OVCAR-5): 19.8 µM (inactive)
- GI50 (SNB-75): 16.9 µM (inactive)
- GI50 (LOX IMVI): 8.59 µM (inactive)
- GI50 (786-0): 3.92 µM (inactive)
- GI50 (U-251): 19.5 µM (inactive)
- GI50 (SW-620): 1.89 µM (inactive)
- GI50 (SR): 4.57 µM (inactive)
- GI50 (HCT-15): 17.4 µM
- GI50 (MDA-MB-435): 2.29 µM (inactive)
- GI50 (HOP-62): 17.8 µM (inactive)
- GI50 (DU-145): 18.3 µM (inactive)
- GI50 (MDA-N): 3.56 µM (inactive)
- GI50 (K562): 1.93 µM (inactive)
- GI50 (UACC-257): 13.7 µM (inactive)
- GI50 (ACHN): 2.52 µM (inactive)
- GI50 (KM12): 15 µM (inactive)
- GI50 (BT-549): 11.1 µM (inactive)
- GI50 (COLO 205): 1.72 µM (inactive)
- GI50 (Malme-3M): 2.1 µM (inactive)
- GI50 (T47D): 2.21 µM (inactive)
- GI50 (EKVX): 17.7 µM (inactive)
- GI50 (MDA-MB-231): 14.7 µM (inactive)

Source: ChEMBL document CHEMBL1201862, “PubChem BioAssay data set” (2004)
